Test results as given in patent US12421252B2, “Spiro (isobenzofuranazetidine) compounds for the treatment of autoimmune disease” (Hoffmann-La Roche Inc., priority 2020, dated 2025).

Experiments:
[1] = molecular target: T1, CYP2C9 (Homo sapiens, UniProt P11712); assay: CYP inhibition assay in human liver microsome, CYP2C9; assay type: in vitro ADME; conditions: percentage inhibition, substrate Diclofenac 5 μM, <0: not or weak inhibitor
T1 construct: tissue BD-Gentest 452117; host or cells: human liver microsomes
Method: (§1) This is a high throughput screening assay used for assessment of reversible inhibition of CYP2C9, CYP2D6, and CYP3A4 activity of test compounds in human liver microsome (HLM) in early discovery stage.
(§2) Procedure 10 mM DMSO stock solutions of test compounds were diluted in DMSO to generate 2 mM intermediate stock solution. 250 nL of intermediate stock solution were transferred in duplicate into 3 separate 384 well microtitre plates (assay-ready plates). A mixture of HLM and each substrate was made up. 45 μL of HLM substrate mix was then transferred to each well of an assay ready plate and mixed. The negative (solvent) and positive controls (standard inhibitor for each CYP) were included in each assay ready plate. The assay ready plate was warmed to 37° C. in an incubator over 10 minutes. 5 μL pre-warmed NADPH regenerating system was added to each incubation well to start the reaction. Final incubation volume was 50 μL. The assay plate then was placed back in the 37° C. incubator. After incubation (10 minutes for CYP2D6) for 5 minutes, incubates were quenched by addition of 50 μL 100% acetonitrile containing internal standards (400 ng/mL 13C6-4′-OH-Diclofenac, 20 ng/mL D3-Dextrorphan and 20 ng/mL D4-1′OH-Midazolam). The supernatants were collected for RapidFire/MS/MS analysis.
(§3) RapidFire online solid phase extraction/sample injection system (Agilent) coupled with API4000 triple quadrupole mass spectrometer (AB Sciex) were used for sample analysis. The mobile phase composed of acetonitrile and water supplemented with 0.1% formic acid. A C4 solid phase extraction cartridge is used for sample separation. MS detection is achieved in positive ion MRM mode.
(§4) Data analysis Peak areas for substrate, metabolite and internal standard are determined using the RapidFire integrator software (version 3.6.12009.12296). Peak area ratios (PAR) of metabolite and internal standard (stable-labelled metabolite) are then calculated. The measurement window for each experiment is then defined: PAR (0% activity)=average PAR for all incubations containing concentrated inhibitor; Par (100% activity)=average PAR for all incubations containing no inhibitor (DMSO controls); % Activity (test inhibitor)=[PAR (test inhibitor)-PAR (0% activity)]/[PAR (100% activity)-PAR (0% activity)]; % Inhibition (test inhibitor)=100-% Activity (test inhibitor).

[2] = molecular target: T2, CYP2D6 (Homo sapiens, UniProt P10635); assay: CYP inhibition assay in human liver microsome, CYP2D6; assay type: in vitro ADME; conditions: percentage inhibition, substrate Dextromethorphan 5 μM, <0: not or weak inhibitor
T2 construct: tissue BD-Gentest 452117; host or cells: human liver microsomes
Method: as §1, §2, §3, §4

[3] = molecular target: T3, hTLR9 (Homo sapiens, UniProt Q9NR96); assay: HEK293-Blue-hTLR-9 cells assay; assay type: cell-based; conditions: HEK293-Blue-hTLR9 cells, ODN2006 stimulation, 20 hrs, SEAP reporter; read-out: HEK/hTLR9 IC50
T3 sequence (Q9NR96 26-1032): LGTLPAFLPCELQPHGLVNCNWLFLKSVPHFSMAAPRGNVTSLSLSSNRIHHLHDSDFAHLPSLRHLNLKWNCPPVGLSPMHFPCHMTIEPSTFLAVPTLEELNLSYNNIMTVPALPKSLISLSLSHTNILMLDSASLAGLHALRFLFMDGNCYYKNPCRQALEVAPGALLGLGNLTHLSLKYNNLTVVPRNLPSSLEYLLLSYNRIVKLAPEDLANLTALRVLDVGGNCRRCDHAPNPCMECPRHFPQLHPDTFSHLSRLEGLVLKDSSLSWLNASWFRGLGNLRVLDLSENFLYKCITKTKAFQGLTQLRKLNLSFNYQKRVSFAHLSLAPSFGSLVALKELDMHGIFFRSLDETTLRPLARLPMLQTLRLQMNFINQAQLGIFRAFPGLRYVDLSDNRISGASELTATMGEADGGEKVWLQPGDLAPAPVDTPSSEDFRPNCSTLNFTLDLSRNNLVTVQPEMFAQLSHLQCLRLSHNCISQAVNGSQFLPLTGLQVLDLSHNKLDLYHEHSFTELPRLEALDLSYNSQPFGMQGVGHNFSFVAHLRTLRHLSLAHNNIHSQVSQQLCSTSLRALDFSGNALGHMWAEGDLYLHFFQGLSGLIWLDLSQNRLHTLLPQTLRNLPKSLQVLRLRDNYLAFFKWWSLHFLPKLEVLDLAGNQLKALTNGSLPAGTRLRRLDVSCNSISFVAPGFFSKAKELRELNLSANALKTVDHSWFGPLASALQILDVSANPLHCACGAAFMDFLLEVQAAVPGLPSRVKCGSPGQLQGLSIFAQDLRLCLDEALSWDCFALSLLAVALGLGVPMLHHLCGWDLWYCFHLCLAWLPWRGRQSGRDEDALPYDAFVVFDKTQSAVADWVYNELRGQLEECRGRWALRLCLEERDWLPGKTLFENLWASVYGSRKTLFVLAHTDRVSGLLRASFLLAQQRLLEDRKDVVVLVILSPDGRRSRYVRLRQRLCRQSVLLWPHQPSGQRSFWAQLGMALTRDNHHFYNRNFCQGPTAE
From the text: HEK293-Blue-hTLR-9 cells assay: A stable HEK293-Blue-hTLR-9 cell line was purchased from InvivoGen (Cat. #: hkb-htlr9, San Diego, California, USA). These cells were originally designed for studying the stimulation of human TLR9 by monitoring the activation of NF-κB. A SEAP (secreted embryonic alkaline phosphatase) reporter gene was placed under the control of the IFN-β minimal promoter fused to five NF-κB and AP-1-binding sites. The SEAP was induced by activating NF-κB and AP-1 via stimulating HEK-Blue hTLR9 cells with TLR9 ligands. Therefore the reporter expression was declined by TLR9 antagonist under the stimulation of a ligand, such as ODN2006 (Cat. #: tlrl-2006-1, Invivogen, San Diego, California, USA), for incubation of 20 hrs. The cell culture supernatant SEAP reporter activity was determined using QUANTI-Blue™ kit (Cat. #: rep-qb1, Invivogen, San Diego, California, USA) at a wavelength of 640 nm, a detection medium that turns purple or blue in the presence of alkaline phosphatase.
HEK293-Blue-hTLR9 cells were incubated at a density of 250,000˜450,000 cells/mL in a volume of 170 μL in a 96-well plate in Dulbecco's Modified Eagle's medium (DMEM) containing 4.5 g/L glucose, 50 U/mL penicillin, […], 2 mM L-glutamine, 10% (v/v) heat-inactivated fetal bovine serum with addition of 20 μL test compound in a serial dilution in the presence of final DMSO at 1% and 10 μL of 20 uM ODN2006 in above DMEM, perform incubation under 37° C. in a CO2 incubator for 20 hrs. Then 20 μL of the supernatant from each well was incubated with 180 μL Quanti-blue substrate solution at 37° C. for 2 h and the absorbance was read at 620-655 nm using a spectrophotometer. The signaling pathway that TLR9 activation leads to downstream NF-κB activation has been widely accepted, and therefore similar reporter assay was modified for evaluating TLR9 antagonist.

T1 sequence (P11712 whole entry): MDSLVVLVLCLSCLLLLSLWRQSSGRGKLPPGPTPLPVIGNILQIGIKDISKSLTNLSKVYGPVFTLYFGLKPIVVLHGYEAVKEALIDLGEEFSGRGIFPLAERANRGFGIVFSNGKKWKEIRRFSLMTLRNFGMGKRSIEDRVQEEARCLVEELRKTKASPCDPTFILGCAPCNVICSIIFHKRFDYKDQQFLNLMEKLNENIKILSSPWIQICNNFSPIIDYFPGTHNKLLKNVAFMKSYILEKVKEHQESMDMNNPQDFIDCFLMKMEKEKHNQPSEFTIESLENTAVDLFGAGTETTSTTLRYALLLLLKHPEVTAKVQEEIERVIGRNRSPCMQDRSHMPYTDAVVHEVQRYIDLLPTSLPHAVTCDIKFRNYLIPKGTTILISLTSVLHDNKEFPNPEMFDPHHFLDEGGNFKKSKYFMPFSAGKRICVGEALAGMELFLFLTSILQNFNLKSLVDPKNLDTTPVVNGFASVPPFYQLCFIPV
T2 sequence (P10635 whole entry): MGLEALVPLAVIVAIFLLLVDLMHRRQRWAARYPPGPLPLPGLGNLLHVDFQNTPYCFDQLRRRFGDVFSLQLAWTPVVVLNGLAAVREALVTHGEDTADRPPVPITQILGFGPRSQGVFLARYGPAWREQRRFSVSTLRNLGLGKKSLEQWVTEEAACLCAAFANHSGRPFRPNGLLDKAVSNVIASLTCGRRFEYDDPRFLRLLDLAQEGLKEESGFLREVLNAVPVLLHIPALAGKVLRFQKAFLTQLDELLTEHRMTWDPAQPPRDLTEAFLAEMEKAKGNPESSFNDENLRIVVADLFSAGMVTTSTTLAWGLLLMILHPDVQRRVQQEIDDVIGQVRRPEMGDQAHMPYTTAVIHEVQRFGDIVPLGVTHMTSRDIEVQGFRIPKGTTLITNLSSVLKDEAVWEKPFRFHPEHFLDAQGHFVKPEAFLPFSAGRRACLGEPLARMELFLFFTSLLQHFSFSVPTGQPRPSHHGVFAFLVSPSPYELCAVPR

[2H]c1ccc2c(N3C[C@H](CN4CC5(C4)OCc4cc(N6CC(C)(N)C6)cnc45)O[C@H](C)C3)ccc(C#N)c2n1 [Example 21, 5-[(2S,6R)-2-[[3-(3-amino-3-methyl-azetidin-1-yl)spiro[5H-furo[3,4-b]pyridine-7,3′-azetidine]-1′-yl]methyl]-6-methyl-morpholin-4-yl]-2-deuterio-quinoline-8-carbonitrile]
CYP (%) 2C9 [1]: 4.5% | CYP (%) 2D6 [2]: 5% | IC50 [3]: 55 nM

C[C@@H]1CN(c2ccc(C#N)n3ncc(F)c23)C[C@H](CN2CC3(C2)OCc2cc(N4CC(C)(N)C4)ncc23)O1 [Example 24, 4-[(2S,6R)-2-[[6-(3-amino-3-methyl-azetidin-1-yl)spiro[1H-furo[3,4-c]pyridine-3,3′-azetidine]-1′-yl]methyl]-6-methyl-morpholin-4-yl]-3-fluoro-pyrazolo[1,5-a]pyridine-7-carbonitrile]
CYP (%) 2C9 [1]: 21% | CYP (%) 2D6 [2]: 3.5% | IC50 [3]: 86 nM

[2H]c1ccc2c(N3C[C@H](CN4CC5(C4)OCc4cc(N6CC(N)C6)cnc45)O[C@H](C)C3)ccc(C#N)c2n1 [Example 20, 5-[(2S,6R)-2-[[3-(3-aminoazetidin-1-yl)spiro[5H-furo[3,4-b]pyridine-7,3′-azetidine]-1′-yl]methyl]-6-methyl-morpholin-4-yl]-2-deuterio-quinoline-8-carbonitrile]
CYP (%) 2C9 [1]: 13.5% | CYP (%) 2D6 [2]: 13% | IC50 [3]: 32 nM

C[C@@H]1CN(c2ccc(C#N)n3nccc23)C[C@H](CN2CC3(C2)OCc2cc(N4CC5(CNCCO5)C4)ccc23)O1 [Example 7, 4-[(2R,6S)-2-methyl-6-[[6-(5-oxa-2,8-diazaspiro[3.5]nonan-2-yl)spiro[1H-isobenzofuran-3,3′-azetidine]-1′-yl]methyl]morpholin-4-yl]pyrazolo[1,5-a]pyridine-7-carbonitrile]
CYP (%) 2C9 [1]: 0% | CYP (%) 2D6 [2]: −2% | IC50 [3]: 68 nM

[2H]c1ccc2c(N3C[C@H](CN4CC5(C4)OCc4cc(N6C[C@H]7NCCO[C@@H]7C6)ccc45)O[C@H](C)C3)ccc(C#N)c2n1 [Example 17, 5-[(2S,6R)-2-[[6-[(4aR,7aR)-3,4,4a,5,7,7a-hexahydro-2H-pyrrolo[3,4-b][1,4]oxazin-6-yl]spiro[1H-isobenzofuran-3,3′-azetidine]-1′-yl]methyl]-6-methyl-morpholin-4-yl]-2-deuterio-quinoline-8-carbonitrile]
CYP (%) 2C9 [1]: 3.5% | CYP (%) 2D6 [2]: 18.5% | IC50 [3]: 32 nM

C[C@@H]1CN(c2ccc(C#N)n3ncc(F)c23)C[C@H](CN2CC3(C2)OCc2cc(N4CC(C)(N)C4)ccc23)O1 [Example 1, 4-[(2S,6R)-2-[[6-(3-amino-3-methyl-azetidin-1-yl)spiro[1H-isobenzofuran-3,3′-azetidine]-1′-yl]methyl]-6-methyl-morpholin-4-yl]-3-fluoro-pyrazolo[1,5-a]pyridine-7-carbonitrile]
IC50 [3]: 131 nM

[2H]c1ccc2c(N3C[C@H](CN4CC5(C4)OCc4cc(N6C[C@@H](N)[C@H](OC)C6)cnc45)O[C@H](C)C3)ccc(C#N)c2n1 [Example 31, 5-[(2S,6R)-2-[[3-[(3R,4R)-3-amino-4-methoxy-pyrrolidin-1-yl]spiro[5H-furo[3,4-b]pyridine-7,3′-azetidine]-1′-yl]methyl]-6-methyl-morpholin-4-yl]-2-deuterio-quinoline-8-carbonitrile]
IC50 [3]: 79 nM

[2H]c1ccc2c(N3C[C@H](CN4CC5(C4)OCc4cc(N6C[C@@H](N)[C@H](OC)C6)ccc45)O[C@H](C)C3)ccc(C#N)c2n1 [Example 16, 5-[(2S,6R)-2-[[6-[(3R,4R)-3-amino-4-methoxy-pyrrolidin-1-yl]spiro[1H-isobenzofuran-3,3′-azetidine]-1′-yl]methyl]-6-methyl-morpholin-4-yl]-2-deuterio-quinoline-8-carbonitrile]
IC50 [3]: 32 nM
